Results: PMC8592419 (PLoS ONE, 2021)
Where a SMILES comes first, the peptide text is derived from it.

Legend:
[1] = test system: M. abscessus clinical isolate MAB07; experiment: microbe, parasite or virus in culture; assay type: cell-based, M. abscessus subsp. abscessus
Procedure: (§1) Mab suspensions at a 5×10^5 CFU/ml final concentration were added to each well and incubated for 3 days and 14 days at 37°C. MIC values were defined when the percent killing of CFUs of more than 90% were compared to the media controls without AMPs or drugs. The fraction inhibitory concentration index (FICI) was calculated using the following formula: FICI = [C(MIC^A)/MIC^A] + [C(MIC^B)/MIC^B]. […] For interpretation, FICI ≤ 0.5 was interpreted as synergism, FICI >0.5–1.0 was interpreted as additive, FICI >1.0–4.0 was interpreted as indifferent and FICI >4.0 was interpreted as antagonism.

[2] = test system: M. abscessus clinical isolate MAB05; experiment: microbe, parasite or virus in culture; assay type: cell-based, M. abscessus subsp. abscessus
Procedure: as §1

[3] = test system: M. abscessus clinical isolate MAB02; experiment: microbe, parasite or virus in culture; assay type: cell-based, M. abscessus subsp. abscessus
Procedure: as §1

[4] = test system: M. abscessus clinical isolate MAB03; experiment: microbe, parasite or virus in culture; assay type: cell-based, M. abscessus subsp. abscessus
Procedure: as §1

[5] = test system: M. abscessus clinical isolate MAB10; experiment: microbe, parasite or virus in culture; assay type: cell-based, M. abscessus subsp. abscessus
Procedure: as §1

[6] = test system: M. abscessus clinical isolate MAB09; experiment: microbe, parasite or virus in culture; assay type: cell-based, M. abscessus subsp. abscessus
Procedure: as §1

[7] = test system: M. abscessus clinical isolate MAB11; experiment: microbe, parasite or virus in culture; assay type: cell-based, M. abscessus subsp. abscessus
Procedure: as §1

[8] = test system: M. abscessus clinical isolate MAB01; experiment: microbe, parasite or virus in culture; assay type: cell-based, M. abscessus subsp. abscessus
Procedure: as §1

[9] = test system: M. abscessus clinical isolate MAB12; experiment: microbe, parasite or virus in culture; assay type: cell-based, M. abscessus subsp. massiliense
Procedure: as §1

[10] = test system: M. abscessus clinical isolate MAB14; experiment: microbe, parasite or virus in culture; assay type: cell-based, M. abscessus subsp. massiliense
Procedure: as §1

[11] = test system: M. abscessus clinical isolate MAB04; experiment: In vitro antimicrobial susceptibility of potential AMPs, broth microdilution, 3 days; assay type: cell-based, M. abscessus subsp. abscessus; details: 3 days at 37°C
Procedure: (§2) Briefly, serial dilutions of the AMPs were prepared with potassium phosphate buffer (PPB) from the concentration range of 3.125 to 400 μg/ml and then 50 μl of each dilution were added to each 96-well plate. Colonies of the isolate were suspended and then further diluted in Mueller-Hinton broth to obtain a final concentration of 1×10^3 CFU/ml (optimized according to the available AMP stock concentration). Fifty microliters of this inoculum were added to each well of the plates. The plates were incubated for 3 days at 37°C. Plain media and bacterial suspensions without AMPs were used as negative and positive controls. The MIC values were read and recorded. All assays were performed in duplicate and two independent experiments.
(§3) For the in vitro antimicrobial susceptibility, the same protocol as described above was used. The culture plates were further incubated up to 3 days at 37°C. The MIC values were read and recorded.

[12] = test system: M. abscessus clinical isolate MAB08; experiment: as above; assay type: cell-based, M. abscessus subsp. abscessus; details: 3 days at 37°C
Procedure: as §2, §3

[13] = test system: human red blood cells (RBCs); experiment: Hemolytic toxicity test; assay type: cell-based; details: human RBCs, 1 h at 37°C, mean±SD of duplicates, two independent experiments
Procedure: For the hemolytic toxicity test, red blood cells (RBCs) from fresh blood samples of healthy volunteers were obtained by centrifugation at 1,000 rpm for 5 min. The cells were washed three times with sterile phosphate buffered saline (PBS) and adjusted into 1×10^8 cells/ml. AMPs were diluted with PPB in ranging from 6.25 to 400 μg/ml. Fifty microliters of the RBC suspensions and 50 μl of AMP solutions were added to 1.5 ml sterile microtubes, incubated for 1 h at 37°C and then centrifuged at 1,000 rpm for 5 min. The supernatants were transferred to new 96-well microtiter plates for measurement of the absorbance at 540 nm using a microplate reader. RBC suspensions treated with 2% (v/v) Triton X-100 and PBS solution were used as positive and negative controls. The percentages of hemolysis were calculated using the following formula: % of RBC lysis = 100 × [(Test—PBS) / (Positive control—PBS)]. All assays were performed in duplicate and two independent experiments.

[14] = test system: M. abscessus clinical isolate MAB16; experiment: In vitro antimicrobial susceptibility of potential AMPs, broth microdilution, 3 days; assay type: cell-based, M. abscessus subsp. massiliense; details: 3 days at 37°C
Procedure: as §2, §3

[15] = test system: M. abscessus clinical isolate MAB15; experiment: as above; assay type: cell-based, M. abscessus subsp. massiliense; details: 3 days at 37°C
Procedure: as §2, §3

[16] = Mycobacteroides abscessus, read-out: MIC of CLA

## CC[C@H]1OC(=O)[C@H](C)[C@@H](O[C@H]2C[C@@](C)(OC)[C@@H](O)[C@H](C)O2)[C@H](C)[C@@H](O[C@@H]2O[C@H](C)C[C@H](N(C)C)[C@H]2O)[C@](C)(OC)C[C@@H](C)C(=O)[C@H](C)[C@@H](O)[C@]1(C)O [CLA, Clarithromycin]
[1]; MAB07, checkerboard, in combination with S61
  MIC of CLA, combined CLA + S61: 0.25 µg/mL
[1]; MAB07, checkerboard, in combination with S62
  MIC of CLA, combined CLA + S62: 0.25 µg/mL
[1]; MAB07, checkerboard, in combination with S63
  MIC of CLA, combined CLA + S63: 0.25 µg/mL
[1]; [16]
  MIC: 16 µg/mL
[2]; MAB05, checkerboard, in combination with S61
  MIC of CLA, combined CLA + S61: 16 µg/mL
[2]; MAB05, checkerboard, in combination with S62
  MIC of CLA, combined CLA + S62: 16 µg/mL
[2]; MAB05, checkerboard, in combination with S63
  MIC of CLA, combined CLA + S63: 16 µg/mL
[2]; [16]
  MIC: 16 µg/mL
[3]; MAB02, checkerboard, in combination with S61
  MIC of CLA, combined CLA + S61: 64 µg/mL
[3]; MAB02, checkerboard, in combination with S62
  MIC of CLA, combined CLA + S62: 64 µg/mL
[3]; MAB02, checkerboard, in combination with S63
  MIC of CLA, combined CLA + S63: 64 µg/mL
[3]; [16]
  MIC: 64 µg/mL
[4]; MAB03, checkerboard, in combination with S61
  MIC of CLA, combined CLA + S61: 2 µg/mL
[4]; MAB03, checkerboard, in combination with S62
  MIC of CLA, combined CLA + S62: 1.5 µg/mL
[4]; MAB03, checkerboard, in combination with S63
  MIC of CLA, combined CLA + S63: 4 µg/mL
[4]; [16]
  MIC: 8 µg/mL
[5]; MAB10, checkerboard, in combination with S61
  MIC of CLA, combined CLA + S61: 32 µg/mL
[5]; MAB10, checkerboard, in combination with S62
  MIC of CLA, combined CLA + S62: 32 µg/mL
[5]; MAB10, checkerboard, in combination with S63
  MIC of CLA, combined CLA + S63: 8 µg/mL
[5]; [16]
  MIC: 1020 µg/mL
[6]; MAB09, checkerboard, in combination with S61
  MIC of CLA, combined CLA + S61: 8 µg/mL
[6]; MAB09, checkerboard, in combination with S62
  MIC of CLA, combined CLA + S62: 6 µg/mL
[6]; MAB09, checkerboard, in combination with S63
  MIC of CLA, combined CLA + S63: 4 µg/mL
[6]; [16]
  MIC: 8 µg/mL
[7]; MAB11, checkerboard, in combination with S61
  MIC of CLA, combined CLA + S61: 128 µg/mL
[7]; MAB11, checkerboard, in combination with S62
  MIC of CLA, combined CLA + S62: 192 µg/mL
[7]; MAB11, checkerboard, in combination with S63
  MIC of CLA, combined CLA + S63: 192 µg/mL
[7]; [16]
  MIC: 512 µg/mL
[8]; MAB01, checkerboard, in combination with S61
  MIC of CLA, combined CLA + S61: 32 µg/mL
[8]; MAB01, checkerboard, in combination with S62
  MIC of CLA, combined CLA + S62: 96 µg/mL
[8]; [16]
  MIC: 1020 µg/mL
[9]; MAB12, checkerboard, in combination with S61
  MIC of CLA, combined CLA + S61: 1,024 μg/ml
[9]; MAB12, checkerboard, in combination with S62
  MIC of CLA, combined CLA + S62: 1,024 μg/ml
[9]; MAB12, checkerboard, in combination with S63
  MIC of CLA, combined CLA + S63: 1,024 μg/ml
[9]; [16]
  MIC: 1020 µg/mL
[10]; MAB14, checkerboard, in combination with S61
  MIC of CLA, combined CLA + S61: 4 µg/mL
[10]; MAB14, checkerboard, in combination with S62
  MIC of CLA, combined CLA + S62: 4 µg/mL
[10]; MAB14, checkerboard, in combination with S63
  MIC of CLA, combined CLA + S63: 32 µg/mL
[10]; [16]
  MIC: 512 µg/mL

## CC[C@H](C)[C@H](NC(=O)[C@H](CCCCN)NC(=O)[C@H](CCCNC(=N)N)NC(=O)CNC(=O)[C@H](CC(C)C)NC(=O)[C@H](CO)NC(=O)[C@H](CCCNC(=N)N)NC(=O)[C@H](CC(C)C)NC(=O)CNC(=O)CN)C(=O)N[C@@H](CC(C)C)C(=O)N[C@@H](CCCNC(=N)N)C(=O)N[C@@H](C)C(=O)N[C@@H](Cc1c[nH]c2ccccc12)C(=O)N[C@@H](CCCCN)C(=O)N[C@@H](CCCCN)C(=O)N[C@@H](Cc1ccc(O)cc1)C(=O)O [S61] (H-GGLRSLGRKILRAWKKY-OH)
[11]
  Antimicrobial peptides against M. abscessus isolates, MIC value: >400 µg/mL
[12]
  Antimicrobial peptides against M. abscessus isolates, MIC value: >400 µg/mL
[13]; 6.25 µg/mL
  Hemolytic activities (%hemolysis): -0.18±0.75%
[13]; 12.5 µg/mL
  Hemolytic activities (%hemolysis): 4.58±4.48%
[13]; 25 µg/mL
  Hemolytic activities (%hemolysis): 6.34±4.98%
[13]; 50 µg/mL
  Hemolytic activities (%hemolysis): 9.15±1.99%
[13]; 100 µg/mL
  Hemolytic activities (%hemolysis): 10.74±0.75%
[13]; 200 µg/mL
  Hemolytic activities (%hemolysis): 11.44±0.25%
[13]; 400 µg/mL
  Hemolytic activities (%hemolysis): 13.03±0.00%
[14]
  Antimicrobial peptides against M. abscessus isolates, MIC value: >400 µg/mL
[15]
  Antimicrobial peptides against M. abscessus isolates, MIC value: >400 µg/mL
[1]; MAB07, AMP + CLA, mean ± S.D., two independent experiments
  FICI: 0.03±0.00
[1]; MAB07, AMP alone
  MIC, AMP alone: >400 µg/mL
[2]; MAB05, AMP + CLA, mean ± S.D., two independent experiments
  FICI: 1.01±0.00
[2]; MAB05, AMP alone
  MIC, AMP alone: >400 µg/mL
[3]; MAB02, AMP + CLA, mean ± S.D., two independent experiments
  FICI: 1.02±0.00
[3]; MAB02, AMP alone
  MIC, AMP alone: >400 µg/mL
[4]; MAB03, AMP + CLA, mean ± S.D., two independent experiments
  FICI: 0.28±0.00
[4]; MAB03, AMP alone
  MIC, AMP alone: 6.25 µg/mL
[5]; MAB10, AMP + CLA, mean ± S.D., two independent experiments
  FICI: 0.05±0.00
[5]; MAB10, AMP alone
  MIC, AMP alone: >400 µg/mL
[6]; MAB09, AMP + CLA, mean ± S.D., two independent experiments
  FICI: 1.01±0.00
[6]; MAB09, AMP alone
  MIC, AMP alone: >400 µg/mL
[7]; MAB11, AMP + CLA, mean ± S.D., two independent experiments
  FICI: 0.67±0.08
[7]; MAB11, AMP alone
  MIC, AMP alone: >400 µg/mL
[8]; MAB01, AMP + CLA, mean ± S.D., two independent experiments
  FICI: 0.41±0.17
[9]; MAB12, AMP + CLA, mean ± S.D., two independent experiments
  FICI: 1.01±0.00
[9]; MAB12, AMP alone
  MIC, AMP alone: >400 µg/mL
[10]; MAB14, AMP + CLA, mean ± S.D., two independent experiments
  FICI: 0.10±0.04
[10]; MAB14, AMP alone
  MIC, AMP alone: >400 µg/mL
